Assay results published in ChEMBL document CHEMBL3580598, “Limonoids and Triterpenoids from Dysoxylum mollissimum var. glaberrimum” (J Nat Prod, 2015).

Columns and labels:
A549 [1] = experiment: Cytotoxicity against human A549 cells assessed as inhibition of cell growth at 10 uM by SRB protein staining method; type: functional; conditions: read-out: GI
HL-60 [2] = experiment: Cytotoxicity against human HL60 cells assessed as inhibition of cell growth at 10 uM by MTT method; type: functional; conditions: read-out: GI
P388 [3] = experiment: Cytotoxicity against mouse P388 cells assessed as inhibition of cell growth at 10 uM by MTT method; type: functional; conditions: read-out: GI
A549 [4] = experiment: Cytotoxicity against human A549 cells by SRB protein staining method; type: functional, cell-based
P388 [5] = experiment: Cytotoxicity against mouse P388 cells by MTT method; type: functional, cell-based
HL-60 [6] = experiment: Cytotoxicity against human HL60 cells by MTT method; type: functional, cell-based

Row | SMILES | inhibition of growth at 10 µM (A549 [1]) [%] | inhibition of growth at 10 µM (HL-60 [2]) [%] | inhibition of growth at 10 µM (P388 [3]) [%] | IC50 (A549 [4]) [nM] | IC50 (P388 [5]) [nM] | IC50 (HL-60 [6]) [nM]
1 | C=C1[C@@H]([C@@]2(C)C=CC(=O)O[C@@](C)(COC(C)=O)[C@@H]2CC(=O)OC)[C@@H](OC=O)[C@H](OC(=O)C(O)C(C)C)[C@@]2(C)[C@H](c3ccoc3)[C@@H](OC(=O)C(OC(C)=O)C(C)C)[C@H]3O[C@]132 (some centres undefined) | < 50 | < 50 | < 50 | – | – | –
2 | CC(=O)O[C@H]1CC(=O)O[C@@]2(C)CO[C@H]3[C@@H](O)[C@]4(C)[C@H](CC[C@@]5(C)[C@H](c6ccoc6)OC(=O)[C@H]6O[C@@]645)[C@]1(C)[C@@H]32 | < 50 | < 50 | < 50 | – | – | –
3 | CC(=O)O[C@H]1CC(=O)O[C@@]2(C)CO[C@H]3[C@@H](OC(=O)C(O)C(C)C)[C@]4(C)[C@H](CC[C@@]5(C)[C@H](c6ccoc6)OC(=O)[C@H]6O[C@@]645)[C@]1(C)[C@@H]32 (some centres undefined) | < 50 | < 50 | < 50 | – | – | –
4 | COC(=O)C[C@H](OC(C)=O)[C@]1(C)[C@H]2CC[C@@]3(C)[C@H](c4ccoc4)OC(=O)[C@H]4O[C@]43[C@]2(C)[C@H](OC(C)=O)[C@H](OC(C)=O)[C@H]1C(C)(C)O | < 50 | < 50 | < 50 | – | – | –
5 | C=C(C)[C@@H]1C[C@@H](O)[C@@]2(C)C3=C[C@H](OC(C)=O)[C@@H](c4ccoc4)[C@]3(C)CC[C@@H]2[C@@]1(C)[C@@H](O)CC(=O)OC | < 50 | < 50 | < 50 | – | – | –
6 | CC(=O)O[C@@H]1C[C@H]2C(C)(C)[C@H](O)CC[C@]2(C)[C@H]2CC[C@]3(C)C(=CC[C@H]3[C@@]3(O)COC(=O)C3)[C@@]21C | < 50 | < 50 | < 50 | – | – | –
7 | CC1(C)C(=O)CC[C@]2(C)[C@H]3CC[C@]4(C)C(=CC[C@H]4C4=CC(=O)OC4)[C@]3(C)[C@H](OC(=O)c3ccccc3)C[C@@H]12 | < 50 | < 50 | < 50 | – | – | –
8 | C=C1[C@@H]([C@@]2(C)[C@@H](OC(C)=O)CC(=O)O[C@@](C)(COC(C)=O)[C@@H]2CC(=O)OC)[C@@H](C(=O)O)[C@H](OC(=O)C(O)C(C)C)[C@@]2(C)[C@H](c3ccoc3)C(OC(=O)C(C)CC)[C@H]3O[C@]132 (some centres undefined) | – | – | – | 2100 | – | –
9 | C[C@@H]([C@@H]1O[C@H]1[C@H](O)C(C)(C)O)[C@@H]1CC[C@]2(C)C3=CC[C@H]4C(C)(C)C(=O)CC[C@]4(C)[C@H]3CC[C@@]12C | < 50 | < 50 | – | – | – | –
10 | C[C@@H]([C@@H]1O[C@H]1[C@@H](O)C(C)(C)O)[C@@H]1CC[C@]2(C)C3=CC[C@H]4C(C)(C)C(=O)CC[C@]4(C)[C@H]3CC[C@@]12C | < 50 | < 50 | < 50 | – | – | –
11 | COc1cccc2c1C(=O)c1c(O)c3c(c(O)c1C2=O)C[C@@](O)(C(=O)CO)C[C@@H]3O[C@H]1C[C@H](N)[C@H](O)[C@H](C)O1 [DOXORUBICIN] | – | – | – | – | 200 | 58
